Calls of active or inactive are those of the source. No cut-off for these calls is given here.
Experiments:
SW626 [1] = experiment: Growth inhibition of human SW626 cells implanted intraperitoneally to NCr nu/nu mouse at 4.39 to 35.1 umol/kg, ip administered from day 3 to 6 after implantation measured on day 7 by MTT-based hollow-fiber test; format: functional
Mus musculus [2] = experiment: Toxicity in tumor cell implanted NCr nu/nu mouse assessed as body weight change at 35.1 umol/kg, ip administered from day 3 to 6 after implantation measured on day 7; format: organism-based; settings: in vivo
SK-MEL-2 = experiment: Cytotoxicity against human SK-MEL-2 cells after 72 hrs by SRB assay; format: functional, cell-based; settings: SK-MEL-2, 72 h
[3] = Cytotoxicity against human KBV1 cells after 72 hrs by SRB assay; format: functional, cell-based; settings: KB-V1, 72 h
Mus musculus [4] = experiment: Toxicity in tumor cell implanted NCr nu/nu mouse assessed as body weight change at 4.39 umol/kg, ip administered from day 3 to 6 after implantation measured on day 7; format: organism-based; settings: in vivo
Mus musculus [5] = experiment: Toxicity in NCr nu/nu mouse subcutaneously implanted with human KB cells assessed as change in body weight at 35.1 umol/kg, ip administered on day 10, 13, 16, 20 of implantation; format: organism-based; settings: in vivo
Mus musculus [6] = experiment: Toxicity in NCr nu/nu mouse subcutaneously implanted with human KB cells assessed as mortality at 17.6 umol/kg, ip administered on day 10, 13, 16, 20 of implantation; format: organism-based; settings: in vivo
Col2 = experiment: Cytotoxicity against human Col2 cells after 72 hrs by SRB assay; format: functional, cell-based; settings: Col2, 72 h
KB [7] = experiment: Growth inhibition of human KB cells implanted intraperitoneally to NCr nu/nu mouse at 4.39 to 35.1 umol/kg, ip administered from day 3 to 6 after implantation measured on day 7 by MTT-based hollow-fiber test; format: functional
KB [8] = experiment: Growth inhibition of human KB cells implanted subcutaneously to NCr nu/nu mouse assessed as tumor size at 4.39 to 28.5 umol/kg, ip administered on day 10, 13, 16, 20 of implantation; format: functional, organism-based
KB [9] = experiment: Growth inhibition of human KB cells implanted subcutaneously to NCr nu/nu mouse at 4.39 to 35.1 umol/kg, ip administered from day 3 to 6 after implantation measured on day 7 by MTT-based hollow-fiber test; format: functional
KB [10] = experiment: Cytotoxicity against human KB cells after 72 hrs by SRB assay; format: functional, cell-based
Mus musculus [11] = experiment: Toxicity in NCr nu/nu mouse subcutaneously implanted with human KB cells assessed as change in body weight at 17.6 umol/kg, ip administered on day 10, 13, 16, 20 of implantation; format: organism-based; settings: in vivo
Mus musculus [12] = experiment: Toxicity in tumor cell implanted NCr nu/nu mouse assessed as body weight change at 8.78 umol/kg, ip administered from day 3 to 6 after implantation measured on day 7; format: organism-based; settings: in vivo
SW626 [13] = experiment: Growth inhibition of human SW626 cells implanted subcutaneously to NCr nu/nu mouse at 4.39 to 35.1 umol/kg, ip administered from day 3 to 6 after implantation measured on day 7 by MTT-based hollow-fiber test; format: functional
Mus musculus [14] = experiment: Toxicity in tumor cell implanted NCr nu/nu mouse assessed as body weight change at 17.6 umol/kg, ip administered from day 3 to 6 after implantation measured on day 7; format: organism-based; settings: in vivo
[15] = Growth inhibition of human KBV1 cells implanted intraperitoneally to NCr nu/nu mouse at 4.39 to 35.1 umol/kg, ip administered from day 3 to 6 after implantation measured on day 7 by MTT-based hollow-fiber test; format: functional, KB-V1
SW626 [16] = experiment: Cytotoxicity against human SW626 cells after 72 hrs by SRB assay; format: functional, cell-based; settings: SW626, 72 h
Mus musculus [17] = experiment: Toxicity in NCr nu/nu mouse subcutaneously implanted with human KB cells assessed as change in body weight at 4.39 umol/kg, ip administered on day 10, 13, 16, 20 of implantation; format: organism-based; settings: in vivo
Lu1 = experiment: Cytotoxicity against human Lu1 cells after 72 hrs by SRB assay; format: functional, cell-based; settings: Lu1, 72 h
Mus musculus [18] = experiment: Toxicity in NCr nu/nu mouse subcutaneously implanted with human KB cells assessed as mortality at 8.78 umol/kg, ip administered on day 10, 13, 16, 20 of implantation; format: organism-based; settings: in vivo
Mus musculus [19] = experiment: Toxicity in NCr nu/nu mouse subcutaneously implanted with human KB cells assessed as mortality at 4.39 umol/kg, ip administered on day 10, 13, 16, 20 of implantation; format: organism-based; settings: in vivo
P388 = experiment: Cytotoxicity against mouse P388 cells after 72 hrs by SRB assay; format: functional, cell-based; settings: P388, 72 h
Mus musculus [20] = experiment: Toxicity in NCr nu/nu mouse subcutaneously implanted with human KB cells assessed as change in body weight at 8.78 umol/kg, ip administered on day 10, 13, 16, 20 of implantation; format: organism-based; settings: in vivo
LNCaP = experiment: Cytotoxicity against human LNCAP cells after 72 hrs by SRB assay; format: functional, cell-based
[21] = Growth inhibition of human KBV1 cells implanted subcutaneously to NCr nu/nu mouse at 4.39 to 35.1 umol/kg, ip administered from day 3 to 6 after implantation measured on day 7 by MTT-based hollow-fiber test; format: functional, KB-V1

## CC(=O)O[C@H]1C(=O)[C@@]2(C)[C@H]([C@H](OC(=O)c3ccccc3)[C@]3(O)C[C@H](OC(=O)[C@H](O)[C@@H](NC(=O)c4ccccc4)c4ccccc4)C(C)=C1C3(C)C)[C@]1(OC(C)=O)CO[C@@H]1C[C@@H]2O [PACLITAXEL]
SW626 [1]
  inhibition (INH): 98.7%
Mus musculus [2]
  Activity: 1.1 g
SK-MEL-2
  IC50: 70 nM
[3]
  IC50: > 2300 nM
Mus musculus [4]
  Activity: 1.7 g
Mus musculus [5]
  Activity: 7.8%
Mus musculus [6]
  Activity: Non-toxic
Col2
  IC50: 20 nM
KB [7]
  inhibition (INH): 70.2%
KB [8]
  Activity: inactive
KB [9]
  inhibition (INH): 19.5%
KB [10]
  IC50: 20 nM
Mus musculus [11]
  Activity: 8.2%
Mus musculus [12]
  Activity: 1.4 g
SW626 [13]
  inhibition (INH): 0%
Mus musculus [14]
  Activity: 1.8 g
[15]
  inhibition (INH): 0%
SW626 [16]
  IC50: 0.01 nM
Mus musculus [17]
  Activity: 9.4%
Lu1
  IC50: 10 nM
Mus musculus [18]
  Activity: Non-toxic
Mus musculus [19]
  Activity: Non-toxic
P388
  IC50: 20 nM
Mus musculus [20]
  Activity: 6.7%
LNCaP
  IC50: 20 nM
[21]
  inhibition (INH): 13.1%

Source: ChEMBL document CHEMBL1150587, “Evaluation of the potential cancer chemotherapeutic efficacy of natural product isolates employing in vivo hollow fiber tests” (J Nat Prod, 2002)
